Values of other authors in US20220119489A1, “COMPOSITIONS AND METHODS FOR TREATING MUSCULAR DYSTROPHY AND RELATED DISORDERS” (CHILDREN'S MEDICAL CENTER CORPORATION, priority 2019, published 2022).

Experiments:
CD82 [1] = details: stated as previously shown, no test described
CD82 [2] = details: Pompe disease patients under treatment

Compound: C[C@]12COC(=O)C[C@@H]1CC[C@@H]1[C@@H]2CC[C@@]2(C)[C@H]1CC[C@]2(C)O [oxandrolone]
- expression of CD82 (CD82 [1]): increase expression of CD82

Compound: recombinant human lysosomal acid alpha glucosidase: recombinant enzyme used to treat Pompe disease patients
- increase of muscle CD82 expression compared to baseline levels (CD82 [2]): 25-50%

Compound: CC(=O)C(=O)[O-].[Na+] [sodium pyruvate]
- expression of CD82 (CD82 [1]): increase expression of CD82
